The text below walks through data of patent US7288407B2, “Stable cytochrome P450 24 (CYP24) expressing cell line and methods and uses thereof” (Cytochroma, Inc., priority 2002, dated 2007).

The assay concerns the target T1, CYP24 (Homo sapiens, UniProt Q07973).
T1 construct: The full-length CYP24 cDNA was amplified using one-step RT-PCR kit; expressed in transfected cells
T1 sequence (Q07973 36-514): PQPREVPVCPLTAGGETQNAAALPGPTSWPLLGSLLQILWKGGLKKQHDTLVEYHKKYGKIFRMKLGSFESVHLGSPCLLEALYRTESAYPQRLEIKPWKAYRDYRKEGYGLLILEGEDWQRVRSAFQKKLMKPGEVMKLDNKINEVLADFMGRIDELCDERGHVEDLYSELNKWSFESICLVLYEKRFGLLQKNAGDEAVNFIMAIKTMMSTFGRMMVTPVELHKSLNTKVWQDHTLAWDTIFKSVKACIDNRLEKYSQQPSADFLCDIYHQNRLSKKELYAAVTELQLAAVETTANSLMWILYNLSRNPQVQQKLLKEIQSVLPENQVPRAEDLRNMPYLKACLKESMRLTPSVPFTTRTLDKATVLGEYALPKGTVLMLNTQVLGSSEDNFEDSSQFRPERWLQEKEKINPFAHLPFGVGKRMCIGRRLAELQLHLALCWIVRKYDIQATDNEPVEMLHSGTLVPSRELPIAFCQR
Nature of the assay: CYP24 enzyme assay using stable CYP24-V79 cells. The assay is classed as cell-based. As to conditions: Bligh-Dyer extraction, organic phase from 3 hours analyzed by HPLC.

Protocol: CYP24/V79 cells were suspended, counted, seeded on well plates and extracted using the Bligh-Dyer extraction method. […] To induce cells, media was removed and the cells washed with 1× PBS buffer. […] Next, a cell suspension was prepared at the day of assay by removing the medium and washing the cell with PBS. 2 ml tripsin/EDTA was added to the plate which was kept in 37° C. for 5 min. Next, 3 ml EDTA medium+1% FCS was added followed by transfer to a 50 ml tube. The plate was washed with 5 ml PBS and mixed. The mix was centrifuged (2,000 rpm, 5 min) and the suspended cells pelleted in DMEM medium+1% BSA. […] About 5 mL 1× PBS buffer was added to collect cells from the plate and then placed in a 50 mL tube followed by repetition with second cell line. About 5 mL 1× PBS buffer was added to further wash the plate and added to the original 50 mL tube. Tubes were centrifuged (2,000 rpm/800 g for 6 minutes) and the supernatant removed. […] The cells were counted via hemocytometer and density adjusted to 250,000 cells/150 μL (1.67 million/1 mL) and then 150 μL added to appropriately labeled wells of 48-well plate. […] The cells were counted and cell density was adjusted to 500,000/150 μL. […] The plate is counted in a scintillation counter. Enzyme activity was then calculated.

Consider `CC[C@H]1OC(=O)[C@H](C)[C@@H](O[C@H]2C[C@@](C)(OC)[C@@H](O)[C@H](C)O2)[C@H](C)[C@@H](O[C@@H]2O[C@H](C)C[C@H](N(C)C)[C@H]2O)[C@](C)(O)C[C@@H](C)C(=O)[C@H](C)[C@@H](O)[C@]1(C)O` [erythromycin], for which the “effect on CYP24 activity (inhibitor/activator)” value is reported as “inhibitors”.
